From PubChem BioAssay AID248 (DTP/NCI, 2004)
Inconclusive results and toxic doses are left out. Cut-off read from the data, not from the text of the source: active = T/C of 150% or more; inactive = T/C below 125%.

System: L1210 leukemia ip in BDF1 mice, survival T/C
Assay: NCI In Vivo Anticancer Drug Screen. Data for tumor model L1210 Leukemia (intraperitoneal) in B6D2F1 (BDF1) mice
Conditions: endpoint: mean survival time, higher = longer survival
Procedure, shortened: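 Transplantable tumor model; survival measured in treated vs vehicle control mice. Value = treated/control.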

[1] = dose: 100.0 mg/kg/injection, schedule: Q01DX001 (ip), vehicle: saline
[2] = dose: 200.0 mg/kg/injection, schedule: Q01DX001 (ip), vehicle: saline
[3] = dose: 400.0 mg/kg/injection, schedule: Q01DX001 (ip), vehicle: saline
[4] = dose: 100.0 mg/kg/injection, schedule: Q04DX003 (ip), vehicle: saline
[5] = dose: 100.0 mg/kg/injection, schedule: Q04DX002 (ip), vehicle: saline with Tween-80

Measured: T/C

CCCCCCCCCCCCCCCC[N+](C)(C)C
inactive: dose: 0.93 mg/kg/injection, schedule: Q04DX003 (ip), vehicle: saline 97 % of control | dose: 1.09 mg/kg/injection, schedule: Q01DX009 (ip), vehicle: saline 100 % of control | dose: 1.87 mg/kg/injection, schedule: Q01DX009 (ip), vehicle: saline 92 % of control | dose: 1.87 mg/kg/injection, schedule: Q04DX003 (ip), vehicle: saline 106 % of control | dose: 2.0 mg/kg/injection, schedule: Q01DX015 (ip), vehicle: saline 94 % of control | dose: 2.18 mg/kg/injection, schedule: Q01DX009 (ip), vehicle: saline 100 % of control | dose: 3.75 mg/kg/injection, schedule: Q01DX009 (ip), vehicle: saline 92 % of control | dose: 3.75 mg/kg/injection, schedule: Q04DX003 (ip), vehicle: saline 95 % of control | dose: 4.0 mg/kg/injection, schedule: Q01DX015 (ip), vehicle: saline 95 % of control | dose: 4.37 mg/kg/injection, schedule: Q01DX009 (ip), vehicle: saline 91 % of control | dose: 6.25 mg/kg/injection, schedule: Q04DX003 (ip), vehicle: saline 101 % of control | dose: 7.5 mg/kg/injection, schedule: Q01DX009 (ip), vehicle: saline 92 % of control | dose: 7.5 mg/kg/injection, schedule: Q04DX003 (ip), vehicle: saline 90 % of control | dose: 11.0 mg/kg/injection, schedule: Q01DX009 (ip), vehicle: saline 113 % of control | dose: 12.5 mg/kg/injection, schedule: Q01DX001 (ip), vehicle: saline 95 % of control | dose: 12.5 mg/kg/injection, schedule: Q04DX003 (ip), vehicle: saline 105 % of control | dose: 25.0 mg/kg/injection, schedule: Q01DX001 (ip), vehicle: saline 98 % of control | dose: 25.0 mg/kg/injection, schedule: Q04DX003 (ip), vehicle: carboxymethylcellulose (CMC) 105 % of control | dose: 25.0 mg/kg/injection, schedule: Q04DX003 (ip), vehicle: saline 90 % of control | dose: 35.0 mg/kg/injection, schedule: Q04DX003 (ip), vehicle: saline 88 % of control | dose: 50.0 mg/kg/injection, schedule: Q04DX003 (ip), vehicle: carboxymethylcellulose (CMC) 100 % of control | dose: 100.0 mg/kg/injection, schedule: Q04DX003 (ip), vehicle: Klucel (hydroxypropylcellulose) (HPC) 103 % of control

CCOC(=O)CNC(=O)C(OC(C)=O)C(OC(C)=O)C(=O)O (stereo unspecified)
inactive: dose: 100.0 mg/kg/injection, schedule: Q04DX003 (ip), vehicle: water 97 % of control | dose: 200.0 mg/kg/injection, schedule: Q04DX003 (ip), vehicle: water 92 % of control | dose: 400.0 mg/kg/injection, schedule: Q04DX003 (ip), vehicle: water 92 % of control

CCOC(=O)CCNC(COCc1ccccc1)C(=O)OCC (stereo unspecified)
inactive: [1] 98 % of control | [2] 95 % of control | [3] 106 % of control

O=C1Nc2nc(=O)nc3[nH]c(=O)nc(n23)N1
inactive: dose: 25.0 mg/kg/injection, schedule: Q01DX009 (ip), vehicle: saline 106 % of control | dose: 50.0 mg/kg/injection, schedule: Q01DX009 (ip), vehicle: saline 98 % of control | dose: 50.0 mg/kg/injection, schedule: Q04DX003 (ip), vehicle: saline 110 % of control | dose: 100.0 mg/kg/injection, schedule: Q01DX009 (ip), vehicle: saline 98 % of control | [4] 103 % of control

CCOC(=O)c1ccnc2ccc(OC)cc12
inactive: [5] 91 % of control | dose: 200.0 mg/kg/injection, schedule: Q04DX002 (ip), vehicle: saline with Tween-80 100 % of control | dose: 400.0 mg/kg/injection, schedule: Q04DX002 (ip), vehicle: saline with Tween-80 104 % of control

Clc1ccc(C[P+](c2ccccc2)(c2ccccc2)c2ccccc2)c(Cl)c1
inactive: dose: 4.5 mg/kg/injection, schedule: Q01DX009 (ip), vehicle: saline 109 % of control | dose: 6.25 mg/kg/injection, schedule: Q01DX009 (ip), vehicle: saline with Tween-80 100 % of control | dose: 9.0 mg/kg/injection, schedule: Q01DX009 (ip), vehicle: saline 106 % of control | dose: 9.38 mg/kg/injection, schedule: Q01DX001 (ip), vehicle: water 100 % of control | dose: 12.5 mg/kg/injection, schedule: Q01DX009 (ip), vehicle: saline with Tween-80 94 % of control

CCOC=Nc1c(/C=C(/O)C(=O)OCC)c[n+]([O-])nc1OC
inactive: dose: 25.0 mg/kg/injection, schedule: Q04DX002 (ip), vehicle: saline with Tween-80 92 % of control | dose: 25.0 mg/kg/injection, schedule: Q04DX002 (ip), vehicle: saline 92 % of control | dose: 50.0 mg/kg/injection, schedule: Q04DX002 (ip), vehicle: saline with Tween-80 96 % of control | dose: 50.0 mg/kg/injection, schedule: Q04DX002 (ip), vehicle: saline 96 % of control | [5] 89 % of control | dose: 100.0 mg/kg/injection, schedule: Q04DX002 (ip), vehicle: saline 96 % of control

COc1ccc(/C=C2\CN(CCC(=O)O)C(=O)C2=O)cc1
inactive: [1] 103 % of control | [4] 98 % of control | [2] 98 % of control | dose: 200.0 mg/kg/injection, schedule: Q04DX003 (ip), vehicle: saline 98 % of control | [3] 98 % of control | dose: 400.0 mg/kg/injection, schedule: Q04DX003 (ip), vehicle: saline 98 % of control

COC1=C(OC)C(=O)C(SCCCc2ccccc2)=CC1=O
inactive: dose: 1.56 mg/kg/injection, schedule: Q01DX009 (im), vehicle: olive oil, sesame oil, peanut oil 101 % of control | dose: 3.13 mg/kg/injection, schedule: Q01DX009 (im), vehicle: olive oil, sesame oil, peanut oil 96 % of control | dose: 6.25 mg/kg/injection, schedule: Q01DX009 (im), vehicle: olive oil, sesame oil, peanut oil 98 % of control | dose: 12.5 mg/kg/injection, schedule: Q01DX009 (im), vehicle: olive oil, sesame oil, peanut oil 101 % of control | dose: 25.0 mg/kg/injection, schedule: Q01DX009 (im), vehicle: olive oil, sesame oil, peanut oil 98 % of control

CCCCCCCc1cc(O)c2c3c(c(=O)oc2c1)CCC(C)C3 (stereo unspecified)
inactive: dose: 75.0 mg/kg/injection, schedule: Q04DX003 (ip), vehicle: Klucel (hydroxypropylcellulose) (HPC) 93 % of control | dose: 150.0 mg/kg/injection, schedule: Q04DX003 (ip), vehicle: Klucel (hydroxypropylcellulose) (HPC) 92 % of control | dose: 300.0 mg/kg/injection, schedule: Q04DX003 (ip), vehicle: Klucel (hydroxypropylcellulose) (HPC) 93 % of control

O=C(O)c1ccc(F)cc1O
inactive: [1] 97 % of control | [2] 109 % of control

Cc1ccnc(NS(=O)(=O)c2ccc(N=Nc3c(N)[nH]c(=O)[nH]c3=O)cc2)n1
inactive: [1] 100 % of control | [2] 102 % of control | [3] 105 % of control

CCSC(Sc1ccccc1)C(SCC)C(OC(=O)c1ccccc1)C(OC(=O)c1ccccc1)C(COC(=O)c1ccccc1)OC(=O)c1ccccc1 (stereo unspecified)
inactive: dose: 75.0 mg/kg/injection, schedule: Q01DX001 (ip), vehicle: other 95 % of control | dose: 150.0 mg/kg/injection, schedule: Q01DX001 (ip), vehicle: other 90 % of control | dose: 300.0 mg/kg/injection, schedule: Q01DX001 (ip), vehicle: other 94 % of control

CCCCCCCC/C=C\CCCCCCCC(=O)[O][Sn]([CH2]CCC)([CH2]CCC)[O]C(=O)CCCCCCC/C=C\CCCCCCCC
inactive: dose: 1.56 mg/kg/injection, schedule: Q01DX009 (ip), vehicle: Klucel (hydroxypropylcellulose) (HPC) 109 % of control | dose: 3.12 mg/kg/injection, schedule: Q01DX009 (ip), vehicle: Klucel (hydroxypropylcellulose) (HPC) 98 % of control | dose: 6.25 mg/kg/injection, schedule: Q01DX009 (ip), vehicle: Klucel (hydroxypropylcellulose) (HPC) 106 % of control

COc1cc2ccc(C(N)=O)cc2cc1OC
inactive: dose: 100.0 mg/kg/injection, schedule: Q01DX001 (ip), vehicle: other 98 % of control | dose: 100.0 mg/kg/injection, schedule: Q01DX009 (ip), vehicle: saline with Tween-80 92 % of control | dose: 100.0 mg/kg/injection, schedule: Q04DX003 (ip), vehicle: other 96 % of control | dose: 200.0 mg/kg/injection, schedule: Q01DX001 (ip), vehicle: other 102 % of control | dose: 200.0 mg/kg/injection, schedule: Q01DX009 (ip), vehicle: saline with Tween-80 95 % of control | dose: 200.0 mg/kg/injection, schedule: Q04DX003 (ip), vehicle: other 103 % of control | dose: 400.0 mg/kg/injection, schedule: Q01DX001 (ip), vehicle: other 100 % of control | dose: 400.0 mg/kg/injection, schedule: Q01DX009 (ip), vehicle: saline with Tween-80 98 % of control | dose: 400.0 mg/kg/injection, schedule: Q04DX003 (ip), vehicle: other 103 % of control
